In this experiment the target is T1, YeiE (CsYeiE) (Cronobacter sakazakii, UniProt H9BVC9).
T1 sequence (H9BVC9 85-288): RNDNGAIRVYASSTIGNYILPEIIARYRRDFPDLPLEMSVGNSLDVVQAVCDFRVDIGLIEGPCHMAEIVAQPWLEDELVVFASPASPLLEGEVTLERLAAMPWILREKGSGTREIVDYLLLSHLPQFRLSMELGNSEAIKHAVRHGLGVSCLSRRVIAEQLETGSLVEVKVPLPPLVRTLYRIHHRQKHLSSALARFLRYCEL
Nature of the experiment: ITC. Format: binding.

Each structure is given as a SMILES string.

Among the data in PMC8931317 (Proceedings of the National Academy of Sciences of the …, 2022) are Kd values, retold here.

One may read the Kd as the free concentration of one partner at which half of the binding sites on the other are occupied at equilibrium, for simple one-to-one binding. In the case of `O=S(O)O` [sulfite], the Kd turned out to be 1380 nM.
